These results are taken from patent US11072590B2, “1,4,7,10-tetrazacyclododecane based agents to target bacteria and its use” (HELMHOLTZ-ZENTRUM FUER INFEKTIONSFORSCHUNG GMBH, priority 2014, dated 2021).

What all share (type): cell-based
For one experiment, the system named is P. aeruginosa PA01/wt. Kind of experiment: Broth microdilution MIC, P. aeruginosa PA01/wt. How it is done:
(§1) All liquids and media were sterilized by autoclaving (121° C., 15 min) before use. All aqueous solutions and media were prepared using distilled, deionized, and filtered water (Millipore Milli-Q Advantage A10 Water Purification System) Mueller-Hinton No. 2 broth (MHII broth; cation adjusted) was purchased from Sigma-Aldrich (St. Louis, Mo.). Iron-deficient (−Fe) MHII broth was prepared by adding 0.8 mL of a 1 mg/mL sterile aq. solution of 2,2′-bipyridine to 49.2 mL of MHII broth. Iron-rich (+Fe) MHII broth was prepared by adding 0.8 mL of a 1 mg/mL sterile aq. solution of FeCl3 to 49.2 mL of MH II broth.
(§2) Antibacterial activity of the compounds was determined by measuring their minimum inhibitory concentrations (MIC90's) using the broth microdilution method according to the Clinical and Laboratory Standards Institute (CLSI, formerly the NCCLS) guidelines. Each well of a 96-well microtiter plate was filled with 40 μL of sterile broth media (−Fe or +Fe). Each test compound was dissolved in DMSO making a 10 mM solution, and then diluted with sterile broth media (−Fe or +Fe) to 75 or 150 μM. Exactly 80 μL of the compound solution was added to the first well of the microtiter plate and 1.5-fold serial dilutions were made down each row of the plate. Exactly 40 μL of bacterial inoculum (Acinetobacter baumannii, Pseudomonas aeruginosa, Staphylococcus aureus Starting Optical density (OD)=0.0005) was then added to each well giving a total volume of 80 μL/well. The plate was incubated at 37° C. for 48 h and then each well was examined for bacterial growth. The MIC90 was recorded as the lowest compound concentration (μM) required to inhibit 90% of bacterial growth as judged by turbidity of the culture media relative to a row of wells filled with a DMSO standard.
(In general: Dilution methods test growth across graded concentrations, often in twofold steps.)

The subject of the next experiment is Acinetobacter baumannii. Kind of experiment: Uptake in bacteria by confocal fluorescent microscopy. The conditions noted are these: 20 μM probe, 1 hour at 37° C., PBS. The method, then: The uptake of coumarin 343, HHY-10 and HHY-11 was investigated in gram-negative bacteria Pseudomonas aeruginosa PA7 (DSM 24068), Acinetobacter baumannii (DSM 30007, ATCC 19606) and gram-positive bacteria Staphylococcus aureus MRSA (DSM 11822, ICB 25701). Gram-negative bacteria were cultured overnight in Mueller Hinton Broth (M-H Broth)+1% glucose (10 g/L) or Gram-positive bacteria were cultured overnight in trypticase soy yeast extract medium (TSY-Med) at 37° C. under 5% CO2 in an incubator shaker set at 180 rpm. Bacteria (from the overnight culture) were re-suspended in 10 mL of PBS buffer, to an optical density of 0.1 at 600 nm. The bacterial culture solution was transferred into 48 well plates, with each well containing 200 μL of bacteria, and 0.4 μL of either coumarin 343, HHY-10 and HHY-11 stock solutions (10 mM in PBS) were added, generating a 20 μM probe concentration. The bacteria were incubated with the probes for 1 hour at 37° C. under 5% CO2 in an incubator without shaking. The bacteria were harvested by centrifuging the bacterial solutions. The resulting pellets were washed 3 times with 200 μL PBS by resuspending the pellets in PBS and centrifuging. The washed bacterial pellets were transferred into a slice, then imaged using confocal fluorescent microscopy. The intensity of the green signal from coumarin presents the relevant amount of these probes taken by the bacteria.

A further experiment has as its system P. aeruginosa PA14/wt. Kind of experiment: Broth microdilution MIC, P. aeruginosa PA14/wt. How it is done:
as §1, §2

The subject of a further experiment is P. aeruginosa PAO01/fptA. Kind of experiment: Broth microdilution MIC, P. aeruginosa PAO01/fptA mutant. The conditions noted are these: mutation in pyochelin outer membrane receptor precursor. The method, then:
as §1, §2

Experiment [1] has as its system Staphylococcus aureus MRSA (DSM 11822, ICB 25701). Briefly: Broth microdilution MIC, Staphylococcus aureus. The method, then:
as §1, §2
(§3) Compounds HHY-10 and HHY-11 were subjected to further assays to determine their minimum inhibitory concentrations (MIC) in both iron-rich and iron-deficient media (Table 1). […] Compounds 10 and 11 were also tested against Klebsiella pneumoniae (DSM 11678, ATCC 33495), which is able to synthesize and utilize enterobactin and its degraded product for iron uptake under iron-limited conditions. […] It appears that P. aeruginosa, A. baumannii, Straph aureus and K. pneumoniae, either induced or inherently, have different abilities to use triscatecholate as a siderophore for iron uptake. The inhibitory activities of vancomycin siderophore-DOTA conjugate HHY-30 have been analyzed under similar conditions.

The test system of experiment [2] is Pseudomonas aeruginosa PA7, Acinetobacter baumannii, Staphylococcus aureus MRSA. Briefly: Bacterial inhibition assays, across the bacteria tested. How it is done:
as §1
Antibacterial activity of the compounds was determined by measuring their minimum inhibitory concentrations (MIC90's) using the broth microdilution method according to the Clinical and Laboratory Standards Institute (CLSI, formerly the NCCLS) guidelines. Each well of a 96-well microtiter plate was filled with 40 μL of sterile broth media (−Fe or +Fe). Each test compound was dissolved in DMSO making a 10 mM solution, and then diluted with sterile broth media (−Fe or +Fe) to 75 or 150 μM. […]
Compounds HHY-10 and HHY-11 were subjected to further assays to determine their minimum inhibitory concentrations (MIC) in both iron-rich and iron-deficient media (Table 1). […] The inhibitory activities of vancomycin siderophore-DOTA conjugate HHY-30 have been analyzed under similar conditions.

Experiment [3] relates to Klebsiella pneumoniae (DSM 11678, ATCC 33495). Kind of experiment: Broth microdilution MIC, Klebsiella pneumoniae. How it is done:
as §1, §2, §3

Experiment [4] concerns Pseudomonas aeruginosa PA7 (DSM 24068). Briefly: Broth microdilution MIC, Pseudomonas aeruginosa. The method, then: as §1, §2, §3
In another experiment the test system is P. aeruginosa PA01/pirA. Kind of experiment: Broth microdilution MIC, P. aeruginosa PA01/pirA mutant. The conditions noted are these: mutant with defect in ferric enterobactin receptor (pirA). How it is done:
as §1, §2

In experiment [5] the test system is Acinetobacter baumannii (DSM 30007, ATCC 19606). Briefly: Broth microdilution MIC, Acinetobacter baumannii. How it is done: as §1, §2, §3
The test system of another experiment is P. aeruginosa PA07/wt. Briefly: Broth microdilution MIC, P. aeruginosa PA07/wt. How it is done:
as §1, §2

[6] abbreviates: Fe− (iron-deficient MHII broth).

Values after ≈ are worked out from the molar mass of the structure shown. Like-named read-outs stand apart in the source and are kept apart here. Bounds are passed on as bounds.

A word on the MIC: it is the lowest concentration found to suppress growth. For `O=C(O)c1cc2cc3c4c(c2oc1=O)CCCN4CCC3` [Coumarin 343, reference compound], the MIC against P. aeruginosa PA01/wt (Fe+ (iron-rich MHII broth)), with P. aeruginosa PA01/wt (setting [6]), with P. aeruginosa PA14/wt (Fe+ (iron-rich MHII broth)), against P. aeruginosa PA14/wt (setting [6]), against P. aeruginosa PAO01/fptA (Fe+ (iron-rich MHII broth)) and in the experiment on P. aeruginosa PAO01/fptA (setting [6]) was greater than 100 µM each time. Moreover, the MIC in experiment [1] (Fe+ (iron-rich MHII broth)), in experiment [1] (setting [6]), in experiment [3] (Fe+ (iron-rich MHII broth)), in experiment [3] (setting [6]), in experiment [4] (Fe+ (iron-rich MHII broth)) and in experiment [4] (setting [6]) was greater than 100 µM each time. Also, the MIC (in the experiment on P. aeruginosa PA01/pirA (Fe+ (iron-rich MHII broth)); in the experiment on P. aeruginosa PA01/pirA (setting [6]); in experiment [5] (Fe+ (iron-rich MHII broth)); in experiment [5] (setting [6]); against P. aeruginosa PA07/wt (Fe+ (iron-rich MHII broth)); in the experiment with P. aeruginosa PA07/wt (setting [6])) was greater than 100 µM each time. Besides, in the experiment on Acinetobacter baumannii, the “uptake: fluorescence (green signal from coumarin) in bacteria” value is reported as “would not lead to obvious fluorescence”. Moreover, in experiment [2] (across bacteria), the “MIC (generally inactive)” value was greater than 100 µM.

In the case of `CC(=O)Oc1cccc(C(=O)NCCNC(=O)CN2CCN(CC(=O)NCCCOCCOCCOCCCNC(=O)c3cc4cc5c6c(c4oc3=O)CCCN6CCC5)CCN(CC(=O)NCCNC(=O)c3cccc(OC(C)=O)c3OC(C)=O)CCN(CC(=O)NCCNC(=O)c3cccc(OC(C)=O)c3OC(C)=O)CC2)c1OC(C)=O` [HHY-10], the MIC in the experiment on P. aeruginosa PA01/wt (Pseudomonas aeruginosa, PA01/WT, Fe+ (iron-rich MHII broth)) was greater than 100 µM; against P. aeruginosa PA01/wt (Pseudomonas aeruginosa, PA01/WT, Fe− (iron-deficient MHII broth)) it was 40 µM (≈ 66.4 µg/mL); with P. aeruginosa PA14/wt (Pseudomonas aeruginosa, PA14, Fe+ (iron-rich MHII broth)), greater than 100 µM; in the experiment with P. aeruginosa PA14/wt (Pseudomonas aeruginosa, PA14, Fe− (iron-deficient MHII broth)) it was 40 µM (≈ 66.4 µg/mL); against P. aeruginosa PAO01/fptA (Pseudomonas aeruginosa, PAO01/FPTA, Fe+ (iron-rich MHII broth)), greater than 100 µM; against P. aeruginosa PAO01/fptA (Pseudomonas aeruginosa, PAO01/FPTA, Fe− (iron-deficient MHII broth)), 40 µM (≈ 66.4 µg/mL). In addition, the minimal inhibitory concentration (MIC) in experiment [1] (Staphylococcus aureus, Fe+ (iron-rich MHII broth)) was greater than 100 µM; in [1] (Staphylococcus aureus, Fe− (iron-deficient MHII broth)), 28 µM (≈ 46.5 µg/mL); in [3] (setting [6]), greater than 100 µM; in experiment [3] (Klebsiella pneumoniae), greater than 100 µM; in experiment [3] (Klebsiella pneumoniae, read-out: MIC (inactive against K. pneumoniae)), greater than 100 µM; in experiment [4] (Pseudomonas aeruginosa, DSM24068, Fe+ (iron-rich MHII broth)) it was greater than 100 µM. Also, the MIC is 33 µM (≈ 54.8 µg/mL) in [4] (Pseudomonas aeruginosa, DSM24068, Fe− (iron-deficient MHII broth)); greater than 100 µM against P. aeruginosa PA01/pirA (Pseudomonas aeruginosa, PA01/PIRA, Fe+ (iron-rich MHII broth)); 40 µM (≈ 66.4 µg/mL) against P. aeruginosa PA01/pirA (Pseudomonas aeruginosa, PA01/PIRA, Fe− (iron-deficient MHII broth)); greater than 100 µM in [5] (Acinetobacter baumannii, Fe+ (iron-rich MHII broth)); 15 µM (≈ 24.9 µg/mL) in experiment [5] (Acinetobacter baumannii, Fe− (iron-deficient MHII broth)); greater than 100 µM in the experiment with P. aeruginosa PA07/wt (Pseudomonas aeruginosa, PA07/WT, Fe+ (iron-rich MHII broth)). This compound also showed an MIC against P. aeruginosa PA07/wt (Pseudomonas aeruginosa, PA07/WT, Fe− (iron-deficient MHII broth)) of 40 µM (≈ 66.4 µg/mL). Also, in the experiment on Acinetobacter baumannii, the “uptake: fluorescence (green signal from coumarin) in bacteria” value is “obvious fluorescent signals”. Besides, the antibacterial activity result in experiment [2] (iron-deficient medium) was “media antibacterial activity”.
